Article PMC11714206, “Massively Parallel Screening of Toll/Interleukin‐1 Receptor (TIR)‐Derived Peptides Reveals Multiple Toll‐Like Receptors (TLRs)‐Targeting Immunomodulatory Peptides” (Advanced Science, 2024)
Each block holds one sequence with its values, some of them ahead of it.

Molecular target: T1, MAL^TIR (Homo sapiens, UniProt P58753)
T1 construct: MAL (residues 79–221); 6xHis; made in house; host or cells: E. coli BL21 (DE3)
Assay: T‐Surf phage library (P8 and P3) selection against MAL^TIR, four rounds, NGS read counts
Assay type: binding
Details: for P8_MAL Rank (after) / P8_MAL Rank (before): P8 library; for Population: P3_MAL pool: P3 T-Surf phage library, 4th round of selection against MAL TIR, share of NGS reads; for P3_MAL Rank (after) / P3_MAL Rank (before): P3 library
In short: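 P8 and P3 T‐Surf libraries panned against plate-coated TIR domains (5 µg mL^−1), 1 h binding at RT, acid elution and TG1/helper-phage amplification per round. After four rounds, pools were PCR-barcoded and sequenced (NovaSeq, 100 bp paired-end, Phred ≥30); peptides ranked by read counts.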

[1] = P8_MAL: rank by count after grouping
[2] = P8_MAL: rank by count before grouping
[3] = selection against MAL, rank after grouping
[4] = selection against MAL, rank before grouping
[5] = P3_MAL: rank by count after grouping
[6] = P3_MAL: rank by count before grouping
[7] = 4R selection against MAL, rank after grouping
[8] = 4R selection against MAL, rank before grouping
[9] = selection against MAL, rank by count after grouping
[10] = selection against MAL, rank by count before grouping
[11] = selection against MAL TIR, rank by count after grouping
[12] = selection against MAL TIR, rank by count before grouping

T1 sequence (P58753 79-221): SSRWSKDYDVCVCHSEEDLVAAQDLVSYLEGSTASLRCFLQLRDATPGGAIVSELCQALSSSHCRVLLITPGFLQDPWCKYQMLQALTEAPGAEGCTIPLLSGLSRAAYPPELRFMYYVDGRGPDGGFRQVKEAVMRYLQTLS

Rank (after) [1]: 189 | Rank (before) [2]: 1444
Sequence: SFYERLVRLILRDTTV

P8_MAL Rank (after) [3]: 541 | P8_MAL Rank (before) [4]: 2312
Sequence: RNLLAYLRWAVANTVI

Population: 0.00413%
Sequence: SSFREGLWRLPELSKK

Rank (after) [5]: 178 | Rank (before) [6]: 3204
Sequence: SSLREVLWRLLELSKK

P8_MAL Rank (after) [7]: 630 | P8_MAL Rank (before) [8]: 2348
Sequence: QLIQHWIELHQHQLHL

P3_MAL Rank (after) [3]: 535 | P3_MAL Rank (before) [4]: 3175
Sequence: SSFREGLGLLLELGKK

P3_MAL Rank (after) [9]: 679 | P3_MAL Rank (before) [10]: 3278
Sequence: NDVEGCRDALTKVASL

P3_MAL Rank (after) [9]: 682 | P3_MAL Rank (before) [10]: 1882
Sequence: DWFLSKLSQHLLKRAK

P8_MAL Rank (after) [3]: 512 | P8_MAL Rank (before) [4]: 1816
Sequence: AFLYPFLINLTHPTIP

P8_MAL Rank (after) [9]: 722 | P8_MAL Rank (before) [10]: 1646
Sequence: AFFWAQQKSVLGDPTM

P3_MAL Rank (after) [11]: 281 | P3_MAL Rank (before) [12]: 2398
Sequence: RGFLSHMRHPLQAKDH

P3_MAL Rank (after) [11]: 215 | P3_MAL Rank (before) [12]: 2299
Sequence: LKVERWRQALEKADKL

Rank (after) [5]: 435 | Rank (before) [6]: 2116
Sequence: LGFFCNQAKALSDRGI

P3_MAL Rank (after) [9]: 762 | P3_MAL Rank (before) [10]: 3640
Sequence: KIWGWRDALSRNPH

Rank (after) [1]: 472 | Rank (before) [2]: 1943
Sequence: AYAYSRLVLLPLLELS

P8_MAL Rank (after) [3]: 521 | P8_MAL Rank (before) [4]: 2615
Sequence: TFLGNLYNPLVQAGLH

P3_MAL Rank (after) [7]: 606 | P3_MAL Rank (before) [8]: 1470
Sequence: YAFTSHLYDRLQRSGI

Rank (after) [1]: 147 | Rank (before) [2]: 1837
Sequence: AFLYTFLINLTRQTNF

P3_MAL Rank (after) [3]: 496 | P3_MAL Rank (before) [4]: 1419
Sequence: YAFTGHLHRYLQAKDH

P3_MAL Rank (after) [7]: 622 | P3_MAL Rank (before) [8]: 3161
Sequence: SSFREGLWRLRELGKK

P3_MAL Rank (after) [9]: 691 | P3_MAL Rank (before) [10]: 3654
Sequence: KMQQWQDALYEAANLS

P8_MAL Rank (after) [7]: 599 | P8_MAL Rank (before) [8]: 1916
Sequence: AFRYTFLIILTDPTNF

P3_MAL Rank (after) [3]: 540 | P3_MAL Rank (before) [4]: 3318
Sequence: NLWRNALTVAANLSGW

Rank (after) [1]: 114 | Rank (before) [2]: 1463
Sequence: YFLHFLLFSRPEPAYI

P3_MAL Rank (after) [3]: 563 | P3_MAL Rank (before) [4]: 2488
Sequence: RLLKWQQAMHQFHRWV

Rank (after) [1]: 470 | Rank (before) [2]: 2626
Sequence: TFLDTLLNKLAQAAIH

Rank (after) [1]: 171 | Rank (before) [2]: 2486
Sequence: SEFIQKISLWMNAKIV

P8_MAL Rank (after) [3]: 523 | P8_MAL Rank (before) [4]: 1314
Sequence: WFLFTFLINLTHPTNF

Population: 0.00338%
Sequence: LNVESWRQALEKAGKL

Rank (after) [1]: 431 | Rank (before) [2]: 2115
Sequence: LFFWESLKNVLGSDGR

P8_MAL Rank (after) [7]: 673 | P8_MAL Rank (before) [8]: 2481
Sequence: SEFIQKITLGMNPKIG

Population: 0.00564%
Sequence: NQWRNALTAAANLSGR

P3_MAL Rank (after) [3]: 521 | P3_MAL Rank (before) [4]: 2572
Sequence: RHHRGPLGSDLQYHME

P3_MAL Rank (after) [7]: 659 | P3_MAL Rank (before) [8]: 2860
Sequence: HQAFWERLWAKMQAPI

P3_MAL Rank (after) [7]: 582 | P3_MAL Rank (before) [8]: 1294
Sequence: WHFHLRLRMLALLQKM

P3_MAL Rank (after) [11]: 229 | P3_MAL Rank (before) [12]: 1362
Sequence: YAFTGHVHRYMVQRGV

Rank (after) [1]: 432 | Rank (before) [2]: 2608
Sequence: TFLGHLHNALVQAGNH

P8_MAL Rank (after) [7]: 581 | P8_MAL Rank (before) [8]: 2466
Sequence: SEFIQKIILWMNLKNQ

P8_MAL Rank (after) [7]: 605 | P8_MAL Rank (before) [8]: 1630
Sequence: AFFWAQLKSVLGNPAR

P3_MAL Rank (after) [11]: 217 | P3_MAL Rank (before) [12]: 1547
Sequence: YTALTNSGFHTFLDNE

Rank (after) [1]: 468 | Rank (before) [2]: 1823
Sequence: AFLYTFLVNLTHPTMF

P8_MAL Rank (after) [9]: 692 | P8_MAL Rank (before) [10]: 1346
Sequence: WFLFTVRSAIYSISRA

Rank (after) [5]: 144 | Rank (before) [6]: 508
Sequence: YAFTGHLHRYLCSVA

Rank (after) [5]: 479 | Rank (before) [6]: 1335
Sequence: YFWNALENALAVNNDV

P8_MAL Rank (after) [7]: 663 | P8_MAL Rank (before) [8]: 1473
Sequence: YFLHFLLFSLPATEYI

Rank (after) [5]: 404 | Rank (before) [6]: 1703
Sequence: VRHTFAGYLYDALHRNRI

Rank (after) [1]: 415 | Rank (before) [2]: 1755
Sequence: AFLCTHLKNLIHKTTI

Rank (after) [5]: 125 | Rank (before) [6]: 787
Sequence: DWFREQLRPALKERLP

Rank (after) [1]: 149 | Rank (before) [2]: 1951
Sequence: AYLNTFLINLTHPTNF

Rank (after) [1]: 168 | Rank (before) [2]: 1429
Sequence: WLYERLVSLSLRDTKV

P3_MAL Rank (after) [7]: 675 | P3_MAL Rank (before) [8]: 2980
Sequence: SAFVAPLSEALNQRAL

P8_MAL Rank (after) [7]: 594 | P8_MAL Rank (before) [8]: 1929
Sequence: ALLYTFLIHLTHPTNS
